According to the OPERA property sets (Mansouri et al. 2018):

| logP | SMILES |
| --- | --- |
| 7.45 | CCCCCC(CCCCC)c1ccccc1 |
| 9.29 | CCCCCCCCCCCCC(C)c1ccccc1 (configuration not stated) |
| 8.56 | CCCCCCCC(CCCCC)c1ccccc1 (configuration not stated) |
| 7.59 | CCCCCCCC(CCC)c1ccccc1 (configuration not stated) |
| 7.45 | CCCCCCC(CCCC)c1ccccc1 (configuration not stated) |
| 6.9 | CCCCCC(CCCC)c1ccccc1 (configuration not stated) |
| 9.29 | CCCCCCCCCCCC(CC)c1ccccc1 (configuration not stated) |
| 7 | CCCCCCC(CCC)c1ccccc1 (configuration not stated) |
| 9.16 | CCCCCCCCCC(CCCC)c1ccccc1 (configuration not stated) |
| 9.25 | CCCCCCCCCCC(CCC)c1ccccc1 (configuration not stated) |
| 8.62 | CCCCCCCCCC(CCC)c1ccccc1 (configuration not stated) |
| 8.65 | CCCCCCCCCCCCc1ccccc1 |
| 7 | CCCCCCCC(CC)c1ccccc1 (configuration not stated) |
| 7.53 | CCCCCCCCC(CC)c1ccccc1 (configuration not stated) |
| 8.65 | CCCCCCCCCCC(CC)c1ccccc1 (configuration not stated) |
| 8.1 | CCCCCCCCCC(CC)c1ccccc1 (configuration not stated) |
| 9.36 | CCCCCCCCCCCCCc1ccccc1 |
| 9.16 | CCCCCCCCC(CCCCC)c1ccccc1 (configuration not stated) |
| 8.01 | CCCCCCCC(CCCC)c1ccccc1 (configuration not stated) |
| 8.14 | CCCCCCCCCCCc1ccccc1 |
| 8.56 | CCCCCCCCC(CCCC)c1ccccc1 (configuration not stated) |
| 8.01 | CCCCCCC(CCCCC)c1ccccc1 (configuration not stated) |
| 8.07 | CCCCCCCCC(CCC)c1ccccc1 (configuration not stated) |

| SMILES | logP |
| --- | --- |
| CCCCCCCCCCCC(C)c1ccccc1 (configuration not stated) | 8.77 |
| CCCCCCCCCC(C)c1ccccc1 (configuration not stated) | 7.63 |
| CCCCCCCCCCC(C)c1ccccc1 (configuration not stated) | 8.19 |
| CCCCCCCCC(C)c1ccccc1 (configuration not stated) | 7.06 |
